Tested on: murine macrophages (RAW 264.7)
Test: Cell viability in the nitric oxide assay (resazurin assay)
Assay type: cell-based
Conditions: RAW 264.7, nitric oxide assay
Protocol: The anti-inflammatory activity of the tested flavonolignans was determined as the ability to reduce nitric oxide production by murine macrophages (RAW 264.7) stimulated by bacterial lipopolysaccharides, as previously described. […] For the experiment, 1 × 10^6 cells/mL was seeded into the 96-well plate (100 µL/well). […] After 24 h, the medium was mixed with Griess reagent (0.04 g/mL), prepared freshly in deionized water at the ratio of 1:1. The absorbance was measured after 15 min at 540 nm by the SpectraMax i3x microplate reader. Cell viability was determined by resazurin assay.

COc1cc(C2Oc3cc(-c4oc5c(Br)c(O)cc(O)c5c(=O)c4O)ccc3OC2CO)ccc1O (stereo not shown) [compound 16, 8-bromo-2,3-dehydrosilybin AB]
Concentration above which the cell viability decreased: > 25 µM
